Data reported in patent US20260226034A1 (The Rockefeller University, priority 2023, published 2026).

Biological target: NSP14 (Severe acute respiratory syndrome coronavirus 2, UniProt P0DTD1)
Experiment: NSP14 MTase inhibition assay at 37° C. (MTase-Glo SAH detection)
Assay type: biochemical, SARS-CoV-2
Conditions: 37° C., 0.3 nM NSP14, 2.5 μM SAM, 2.5 μM GpppA RNA; read-out: Nsp14 Mtase Inh. IC50

Cc1c(S(=O)(=O)c2ccc3[nH]ncc3c2)cc(C(=O)NCCN(C)c2ncc(F)cn2)n1C [B.198]
IC50: 16 nM
